The text below walks through data of PMC6116703, “Ethenesulfonyl fluoride derivatives as telomerase inhibitors: structure-based design, SAR, and anticancer evaluation in vitro” (Journal of Enzyme Inhibition and Medicinal Chemistry, 2018).

For experiment [1], the system named is human gastric cancer cells SGC-7901. In words: Cell proliferation (MTT) assay, SGC-7901. Type of experiment: cell-based. The settings on record: read-out: IC50 SGC-7901. Here is the method: (§1) The antiproliferative activities evaluation was conducted by using a modified procedure as described in the literature. Briefly, target tumour cells were grown to log phase in RPMI 1640 medium supplemented with 10% fetal bovine serum. After diluting to 3 × 10^4 cells mL^−1 with the complete medium, 100 µL of the obtained cell suspension was added to each well of 96-well culture plates. The subsequent incubation was performed at 37 °C, 5% CO2 atmosphere for 24 h before subjecting to antiproliferation assessment. The tested samples at pre-set concentrations were added to six wells with Doxorubicin (AMD) co-assayed as a positive reference. After 48 h of exposure period, 25 µL of PBS containing 2.5 mg·mL^−1 of MTT was added to each well. After 4 h, the medium was replaced by 150 µL DMSO to dissolve the purple formazan crystals produced. The absorbance at 570 nm of each well was measured using an ELISA plate reader. The data represented the mean of three experiments in triplicate and were expressed as means ± SD using Student’s test.

Experiment [2] has as its system human hepatoma cell SMMC-7721. The experiment in a line: Cell proliferation (MTT) assay, SMMC-7721. The class given is cell-based. The settings on record: read-out: IC50 SMMC-7721. The method, then:
as §1

The subject of experiment [3] is human breast cancer cell MDA-MB-231. The experiment in a line: Cell proliferation (MTT) assay, MDA-MB-231. Type of experiment: cell-based. The method, then: as §1
A further experiment relates to human melanoma cell A375. The experiment in a line: Cell proliferation (MTT) assay, A375. Type of experiment: cell-based. The method, then: as §1
Experiment [4] has as its system human gastric cancer cells MGC-803. In words: Cell proliferation (MTT) assay, MGC-803. Type of experiment: cell-based. The settings on record: read-out: IC50 MGC-803. Here is the method:
as §1

The next experiment has as its target T1, telomerase (Homo sapiens, UniProt O14746).
T1 construct: endogenous in cells; host or cells: A375 human melanoma cells
The experiment in a line: Telomerase activity TRAP-PCR-ELISA assay (A375 cell extract). The settings on record: IC50 inhibitory activity against telomerase, TRAP-PCR-ELISA, A375 cells, 24 h treatment. The class given is biochemical. Here is the method: Thirty-six compounds were tested in a search for inhibitors of telomerase activity using the TRAP-PCR-ELISA assay. In detail, the A375 cells were firstly maintained in RPMI 1640 buffer (Hyclone, Miami, FL), supplemented with 10% fetal bovineserum (GIBCO, New York, NY), streptomycin (0.1 mg/mL) and penicillin (100 IU/mL) at 37 °C in a humidified atmosphere containing 5% CO2. After trypsinisation, 5 × 10^4 cultured cells in logarithmic growth were seeded into T25 flasks (Corning, New York, NY) and cultured to allow to adherence. […] After 24 h treatment, the cells were harvested by cell scraper orderly followed by washing once with PBS. The cells were lysed in 150 µL RIPA cell lysis buffer (Santa Cruz, Santa Cruz, CA), and incubated on ice for 30 min. The cellular supernatants were obtained via centrifugation at 12,000g for 20 min at 4 °C and stored at –80 °C. The TRAP-PCR-ELISA assay was performed using a telomerase detection kit (Roche, Basel, Switzerland) according to the manufacturer’s protocol. In brief, 2 µL of cell extracts were mixed with 48 µL TRAP reaction mixtures. TRAP primers and Taq polymerase are incubated at 25 °C for 30 min. PCR was then initiated at 94 °C, 120 s for predenaturation and performed using 35 cycles each consisting of 94 °C for 30 s, 50 °C for 30 s, 72 °C for 90 s. Then 20 µL of PCR products were hybridised to a digoxigenin (DIG)-labelled telomeric repeat specific detection probe. And the PCR products were immobilised via the biotin-labelled primer to a streptavidin-coated microtiter plate subsequently. The immobilised DNA fragments were detected with a peroxidase-conjugated anti-DIG antibody and visualised following the addition of the stop regent. The microtitre plate was assessed on TECAN Infinite M200 microplate reader (Mannedorf, Switzerland) at a wavelength of 490 nm, and the final value were presented as mean ± SD[23].
On the technique in general: An ELISA detects its analyte on a solid surface through an enzyme-linked reagent.

[5] abbreviates: antiproliferative, MTT, 48 h exposure.
The mark [6] stands for this setting: antiproliferative, MTT, 48 h exposure, read-out: IC50 MDA-MB-231.
Where [7] appears, read: antiproliferative, MTT, 48 h exposure, read-out: IC50 A375.
Setting [8] is: Homo sapiens, A-375, 48 h, read-out: IC50 A375, antiproliferative, MTT, 48 h exposure.
[9] abbreviates: Homo sapiens, MDA-MB-231, 48 h, read-out: IC50 MDA-MB-231, antiproliferative, MTT, 48 h exposure.

The structures appear in SMILES notation. Like-named read-outs stand apart in the source and are kept apart here.

T1 sequence (O14746 whole entry): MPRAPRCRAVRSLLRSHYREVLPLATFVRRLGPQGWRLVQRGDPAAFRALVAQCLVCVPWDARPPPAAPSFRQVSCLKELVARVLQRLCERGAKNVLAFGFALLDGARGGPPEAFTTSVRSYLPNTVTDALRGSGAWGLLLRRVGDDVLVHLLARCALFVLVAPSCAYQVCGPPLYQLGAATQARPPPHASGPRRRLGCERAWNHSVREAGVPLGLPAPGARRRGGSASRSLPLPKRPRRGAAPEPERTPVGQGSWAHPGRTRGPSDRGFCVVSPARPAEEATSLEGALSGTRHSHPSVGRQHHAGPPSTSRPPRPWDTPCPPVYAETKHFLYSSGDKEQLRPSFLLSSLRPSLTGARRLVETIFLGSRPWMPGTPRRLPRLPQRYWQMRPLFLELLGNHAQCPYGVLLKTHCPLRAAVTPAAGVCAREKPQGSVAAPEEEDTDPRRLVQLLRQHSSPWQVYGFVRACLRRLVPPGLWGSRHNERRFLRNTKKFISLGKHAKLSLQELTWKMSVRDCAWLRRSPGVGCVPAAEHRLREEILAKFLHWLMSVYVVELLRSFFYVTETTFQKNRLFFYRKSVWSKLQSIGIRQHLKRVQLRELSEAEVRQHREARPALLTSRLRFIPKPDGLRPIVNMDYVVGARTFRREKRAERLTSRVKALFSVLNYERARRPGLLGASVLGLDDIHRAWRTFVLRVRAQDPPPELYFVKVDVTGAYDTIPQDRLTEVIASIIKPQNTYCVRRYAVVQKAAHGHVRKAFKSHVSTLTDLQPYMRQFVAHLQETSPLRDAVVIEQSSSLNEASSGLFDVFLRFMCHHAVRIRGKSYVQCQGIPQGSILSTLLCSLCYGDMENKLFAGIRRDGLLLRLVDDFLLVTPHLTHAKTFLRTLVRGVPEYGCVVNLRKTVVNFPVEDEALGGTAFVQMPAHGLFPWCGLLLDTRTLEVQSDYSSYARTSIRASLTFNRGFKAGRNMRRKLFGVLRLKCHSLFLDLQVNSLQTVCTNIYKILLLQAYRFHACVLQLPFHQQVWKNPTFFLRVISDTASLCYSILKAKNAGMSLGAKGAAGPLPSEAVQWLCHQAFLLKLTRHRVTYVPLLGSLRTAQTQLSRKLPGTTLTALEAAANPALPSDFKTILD

Turning to `COc1cccc2c1C(=O)c1c(O)c3c(c(O)c1C2=O)C[C@@](O)(C(=O)CO)C[C@@H]3O[C@H]1C[C@H](N)[C@H](O)[C@H](C)O1` [AMD, Doxorubicin, reference compound], the 50% inhibitory concentration (IC50) (commonly the midpoint of a concentration-inhibition curve) in experiment [1] (Homo sapiens, SGC-7901, antiproliferative, MTT, 48 h exposure) was found to be 0.92 ± 0.08 µM; in experiment [2] (Homo sapiens, SMMC-7721, antiproliferative, MTT, 48 h exposure), 1.05 ± 0.09 µM; in experiment [3] (Homo sapiens, MDA-MB-231, 48 h, antiproliferative, MTT, 48 h exposure, read-out: IC50 MDA-MB-231), 0.81 ± 0.11 µM; in the experiment on human melanoma cell A375 (Homo sapiens, A-375, 48 h, antiproliferative, MTT, 48 h exposure, read-out: IC50 A375), 0.52 ± 0.14 µM; in experiment [4] (Homo sapiens, MGC-803, antiproliferative, MTT, 48 h exposure), 0.67 ± 0.08 µM.

Regarding `CCc1ccc(/C=C/S(=O)(=O)F)cc1` [Compound 2], the IC50 came out at 28.5 ± 1.47 µM in experiment [2] (setting [5]), 58.6 ± 1.78 µM in experiment [3] (setting [6]), 22.8 ± 0.71 µM with human melanoma cell A375 (setting [7]) and 28.6 ± 1.27 µM in experiment [4] (setting [5]).

`O=S(=O)(F)/C=C/c1ccc(F)cc1` [Compound 6]: the IC50 came to 15.9 ± 0.35 µM in experiment [2] (Homo sapiens, SMMC-7721, 48 h); 9.2 ± 1.27 µM in experiment [3] (read-out: IC50 MDA-MB-231, antiproliferative, MTT, 48 h exposure); 5.99 ± 0.49 µM in the experiment on human melanoma cell A375 (setting [8]); 2.98 ± 0.59 µM at telomerase; 44.2 ± 1.25 µM in experiment [4] (Homo sapiens, MGC-803, 48 h).

On to `O=S(=O)(F)/C=C/c1ccc(Cl)cc1` [Compound 7], for which the IC50 stood at 13.3 ± 0.39 µM in experiment [2] (Homo sapiens, SMMC-7721, 48 h); 12.3 ± 0.64 µM in experiment [3] (setting [9]); 9.84 ± 0.78 µM in the experiment on human melanoma cell A375 (setting [8]); 3.02 ± 0.44 µM against telomerase; 12.9 ± 0.3 µM in experiment [4] (Homo sapiens, MGC-803, 48 h).

As for `O=S(=O)(F)/C=C/c1ccc(Br)cc1` [Compound 8], the IC50 was found to be 10.7 ± 0.8 µM in experiment [2] (Homo sapiens, SMMC-7721, 48 h); 17.5 ± 1.77 µM in experiment [3] (setting [9]); 9.12 ± 0.82 µM in the experiment on human melanoma cell A375 (setting [8]); 4.33 ± 0.77 µM at telomerase; 17.2 ± 0.41 µM in experiment [4] (Homo sapiens, MGC-803, 48 h).

Take `O=S(=O)(F)/C=C/c1ccc(OC(F)(F)F)cc1` [Compound 9]: the IC50 in experiment [2] (setting [5]) is 9.04 ± 0.99 µM; in experiment [3] (setting [6]), 36.5 ± 2.56 µM; in the experiment with human melanoma cell A375 (setting [7]) it was 24.1 ± 0.99 µM; in experiment [4] (setting [5]) it was 38.6 ± 1.22 µM.

Consider `O=S(=O)(F)/C=C/c1ccc(C(F)(F)F)cc1` [Compound 10], for which the IC50 in experiment [2] (setting [5]) amounted to 40.1 ± 1.66 µM; in experiment [3] (setting [6]) it was 29.8 ± 2.31 µM; with human melanoma cell A375 (setting [7]), 5.43 ± 0.4 µM; in experiment [4] (setting [5]), 24.9 ± 0.82 µM.

Consider `CC(=O)c1cccc(/C=C/S(=O)(=O)F)c1` [Compound 21], for which the IC50 in experiment [1] (setting [5]) turned out to be 30.8 ± 2 µM; in experiment [2] (setting [5]), 11.8 ± 0.6 µM; in experiment [3] (setting [6]) it was 23.1 ± 2.78 µM; in the experiment with human melanoma cell A375 (setting [7]) it was 16.6 ± 0.91 µM.

In the case of `O=S(=O)(F)/C=C/c1ccc(O)cc1` [Compound 33], the IC50 amounted to 26.2 ± 0.39 µM in experiment [2] (setting [5]), 19 ± 0.65 µM in experiment [3] (setting [6]), 4.96 ± 0.51 µM with human melanoma cell A375 (setting [7]) and 35.9 ± 0.79 µM in experiment [4] (setting [5]).

As to `O=S(=O)(F)/C=C/c1cccs1` [Compound 40], the IC50 was 51.3 ± 2.55 µM in experiment [1] (setting [5]), 35.6 ± 0.55 µM in experiment [2] (setting [5]), 18.3 ± 0.8 µM in experiment [3] (setting [6]) and 6.73 ± 0.5 µM in the experiment with human melanoma cell A375 (setting [7]).

Consider `O=S(=O)(F)/C=C/c1cccc2c1sc1ccccc12` [Compound 43], for which the IC50 in experiment [1] (setting [5]) was determined as 24.8 ± 0.89 µM; in experiment [2] (setting [5]), 34.5 ± 0.77 µM; in experiment [3] (setting [6]), 44 ± 1.2 µM; with human melanoma cell A375 (setting [7]) it was 38.6 ± 0.61 µM.

With `O=S(=O)(F)/C=C/C=C/c1ccccc1` [Compound 48], the IC50 in experiment [1] (Homo sapiens, SGC-7901, 48 h) was 49.1 ± 1.39 µM; in experiment [2] (Homo sapiens, SMMC-7721, 48 h) it was 51 ± 1.91 µM; in experiment [3] (setting [9]) it was 39.7 ± 1.39 µM; with human melanoma cell A375 (setting [8]), 27.4 ± 1.5 µM; at telomerase, 40.2 ± 1.3 µM.

Consider `Cc1ccc(/C=C/C=C/S(=O)(=O)F)cc1` [Compound 49], for which the IC50 in experiment [1] (setting [5]) was 49.79 ± 0.47 µM; in experiment [2] (setting [5]), 48.5 ± 1.65 µM; in experiment [3] (setting [6]) it was 35.2 ± 1.4 µM; in the experiment with human melanoma cell A375 (setting [7]) it was 32.8 ± 1.44 µM.

For `CC(C)(C)c1ccc(/C=C/C=C/S(=O)(=O)F)cc1` [Compound 50], the IC50 in experiment [1] (setting [5]) amounted to 26.9 ± 0.56 µM; in experiment [2] (setting [5]), 29.1 ± 1.27 µM; in experiment [3] (setting [6]) it was 31.6 ± 1.2 µM; in the experiment on human melanoma cell A375 (setting [7]) it was 20.7 ± 1.39 µM.
